Test: xn = mol fraction of the nth substance listed
Conditions: 100 kPa, Liquid; for speed of sound: Frequency=3 MHz, Sing-around technique in a fixed-path interferometer; for mass density: Vibrating tube method

O=C1CCCCCC1 [cycloheptanone] + C1COCCO1
Conditions	mass density, 293.15 K [kg/m3]	mass density, 298.15 K [kg/m3]	mass density, 303.15 K [kg/m3]	mass density, 308.15 K [kg/m3]	speed of sound, 293.15 K [m/s]	speed of sound, 298.15 K [m/s]	speed of sound, 303.15 K [m/s]	speed of sound, 308.15 K [m/s]
x2 = 0.0954	957.02	952.54	948.07	943.61	1466.3	1444.4	1422.1	1399.7
x2 = 0.1589	960.61	956.03	951.46	946.89	1459.2	1437.4	1415.3	1393
x2 = 0.2184	964.09	959.46	954.81	950.18	1452.6	1430.9	1408.9	1386.7
x2 = 0.2555	966.35	961.68	956.99	952.32	1448.6	1426.9	1404.9	1382.8
x2 = 0.3019	969.25	964.56	959.82	955.1	1443.6	1421.9	1400	1377.9
x2 = 0.3487	972.3	967.57	962.78	958.02	1438.6	1416.9	1395.1	1373
x2 = 0.3814	974.5	969.75	964.92	960.13	1435.1	1413.4	1391.6	1369.6
x2 = 0.4324	978.07	973.27	968.38	963.54	1429.7	1408	1386.3	1364.3
x2 = 0.4879	982.15	977.29	972.33	967.42	1423.8	1402.2	1380.5	1358.5
x2 = 0.5219	984.76	979.85	974.85	969.89	1420.3	1398.7	1377	1355
x2 = 0.5723	988.81	983.82	978.74	973.7	1415	1393.4	1371.8	1349.9
x2 = 0.6149	992.39	987.32	982.17	977.06	1410.5	1388.9	1367.4	1345.5
x2 = 0.6687	997.15	991.96	986.73	981.52	1404.8	1383.3	1361.7	1339.9
x2 = 0.7104	1001	995.75	990.44	985.15	1400.4	1378.9	1357.4	1335.6
x2 = 0.7489	1004.7	999.41	994.03	988.66	1396.3	1374.7	1353.3	1331.5
x2 = 0.7919	1009.2	1003.7	998.23	992.77	1391.6	1370.1	1348.6	1326.9
x2 = 0.8475	1015.1	1009.5	1004	998.45	1385.4	1363.9	1342.5	1320.7
x2 = 0.9018	1021.3	1015.6	1010.1	1004.4	1379.3	1357.8	1336.3	1314.5

— the NIST ThermoML archive (doi:10.1021/acs.jced.6b00606)
